Assay results as given in patent US20230210825A1, “METHODS AND COMPOSITIONS FOR TREATING SUBJECTS WITH METABOLIC DISORDERS AND CORONAVIRUS INFECTIONS” (CIRIUS THERAPEUTICS, INC., priority 2020, published 2023).

Tests used:
[1] = test system: cell functions and key regulatory proteins; assay: Impact of MSDC-0602K vs overnutrition on cell functions and key regulatory proteins (Table 1)
[2] = test system: mice fed a diet enriched in trans fat, cholesterol and fructose; assay: Trans fat, cholesterol and fructose diet for 19 weeks: hepatic damage and fibrosis; type: in vivo
Description: Mice were fed a diet enriched in trans fat, cholesterol and fructose for 19 weeks to induce hepatic damage and metabolic dysfunction, which was assessed by histological changes in the NAS and fibrosis, measured by trichrome staining for collagen. MSDC-0602K (30 mg/kg) was given at either four weeks into the treatment or 16 weeks into the treatment as compared to the vehicle treated mice who were also on the modified diet. The results of mice who were kept on the normal diet are included for comparison. […] The signals for activation of the stellate cells and fibrosis are attenuated by treatment of the mice or isolated hepatocytes with MSDC-0602K.

[3] = test system: subjects with biopsy proven non-alcoholic steatohepatitis (NASH) with fibrosis and no cirrhosis; assay: EMMINENCE Phase 2b clinical trial; type: in vivo, human; details: for Peripheral Edema Present at Baseline / Isoleucine Baseline / Leucine Baseline / TotalBCAA Baseline / Valine Baseline / Mean HbA1c at Baseline: before treatment; for Isoleucine Visit 7 / Leucine Visit 7 / TotalBCAA Visit 7 / Valine Visit 7: 12-month endpoint; for HbA1c Placebo-corrected change from Baseline at 6 months: ▾ (decrease)
Description: An interim analysis of the EMMINENCE Phase 2b trial was conducted in the first 328 subjects who reached their six-month follow-up visit. This study is a randomized, double-blinded study of three doses (62.5 mg 125 mg, or 250 mg) of MSDC-0602K or placebo given orally once daily to subjects with biopsy proven non-alcoholic steatohepatitis (NASH; a non-limiting example of a metabolic disorder) with fibrosis and no cirrhosis.
The subjects included in this interim analysis had significant liver disease, as established by liver biopsy, with an average NAS at baseline of 5.3. […] Overall, baseline characteristics were well-balanced across treatment groups.

[4] = test system: influenza virus A/PR/8/34 (H1N1) infected mice; assay: Influenza virus infection of C57BL/6 mice; type: in vivo; details: 30 mg/kg for 8 days
Description: As shown in the top panel of FIG. 13A, C57BL/6 mice were infected with the influenza virus A/PR/8/34 (H1N1; ˜200 pfu/mouse) and then dosed for 8 days with vehicle or 30 mg/kg MSDC-0602K. As shown in the bottom panel of FIG. 13A, body weight was measured daily as indication of the health of the mice and at day 14 the mice were sacrificed for examination of their blood and lung tissue. The mice were sacrificed on day 14. […] The MCP-1 production levels are decreased in mice treated with MSDC-0602K compared with mice with vehicle treatment. Similarly, the inflammatory monocyte numbers in the lungs are reduced in mice treated with MSDC-0602K compared with mice with vehicle treatment. FIG. 13 C is a representative histology with a calculation of the percent disrupted area. […] The levels of protein-B (sftbp) and ABCA3 protein (abca3) were increased in mice treated with MSDC-0602K compared with mice with vehicle treatment. On the other hand, the total protein levels in bronchoalveolar lavage were decreased in mice treated with MSDC-0602K compared with mice with vehicle treatment.

[5] = test system: subjects with biopsy proven non-alcoholic steatohepatitis (NASH) with fibrosis and no cirrhosis; assay: EMMINENCE Phase 2b clinical trial; type: in vivo, human
carbonyl reductase = assay: Metabolism to the hydroxy metabolite
[6] = test system: diet-induced obese (60% HF diet) WT (fl/fl) and LS-MPC2−/− mice; assay: Single dose in diet-induced obese WT and LS-MPC2−/− mice (GTT, plasma insulin, ALT, liver qPCR); details: for glucose tolerance (GTT): 20 h after a single gavage of 30 mg/kg, vs vehicle
[7] = 62.5 mg, N = 99, mean, baseline to 12-month endpoint
[8] = 125 mg, mean, baseline to 12-month endpoint
[9] = 250 mg, N = 101, mean, baseline to 12-month endpoint
[10] = 1-year Phase 2b dose-ranging trial, fatty liver disease with or without type 2 diabetes
[11] = all MSDC-0602K dose cohorts, interim analysis
[12] = all subjects, six months, 125 mg and 250 mg doses
[13] = sacrificed day 14, vs vehicle (FIG. 13B)

Compound: COc1cccc(C(=O)COc2ccc(CC3SC(=O)NC3=O)cc2)c1 (stereo not drawn) [MSDC-0602K]
- Fatty acid oxidation (burning fat) [1]: Increased
- HIF1α (transcription factor responding to oxygen) [1]: Decreased
- Inflammation (ballooning due to injury) [1]: Decreased
- Insulin sensitivity (cellular response to insulin) [1]: Increased
- PPARγ, PPARα (transcription factors regulating fat metabolism and inflammation) [1]: Increased
- SREBP (transcription factor regulating fat synthesis) [1]: Decreased
- de novo lipid synthesis (making new fat) [1]: Decreased
- mTORC1 (important nutrient sensor) [1]: Decreased
- signals for activation of the stellate cells and fibrosis ([2]; 30 mg/kg from week 4 or week 16 of a 19-week diet, mice or isolated hepatocytes): attenuated
- high fat, high cholesterol, high sugar diet-induced metabolic dysfunction ([2]; multiple animal models): protect against
- Peripheral Edema Present at 6 months ([3]; 62.5 mg (n = 81)): 7.80%
- Peripheral Edema Present at Baseline ([3]; 62.5 mg group (n = 81)): 13.60%
- Isoleucine Visit 7 ([3]; 62.5 mg, N = 99, mean): 61.47
- Leucine Visit 7 ([3]; 62.5 mg, N = 99, mean): 114.63
- TotalBCAA Visit 7 ([3]; 62.5 mg, N = 99, mean): 397.39
- Valine Visit 7 ([3]; 62.5 mg, N = 99, mean): 221.29
- Isoleucine Change from Baseline [3, 7]: −6.58
- TotalBCAA Change from Baseline [3, 7]: −30.07
- Valine Change from Baseline [3, 7]: −16.74
- Isoleucine Baseline ([3]; 62.5 mg, N = 99, mean): 69.03
- Leucine Baseline ([3]; 62.5 mg, N = 99, mean): 121.80
- TotalBCAA Baseline ([3]; 62.5 mg, N = 99, mean): 430.03
- Valine Baseline ([3]; 62.5 mg, N = 99, mean): 239.20
- Peripheral Edema Present at 6 months ([3]; 125 mg (n = 84)): 13.50%
- Peripheral Edema Present at Baseline ([3]; 125 mg group (n = 84)): 13.10%
- Isoleucine Visit 7 ([3]; 125 mg, mean): 60.06
- Leucine Visit 7 ([3]; 125 mg, mean): 115.95
- TotalBCAA Visit 7 ([3]; 125 mg, mean): 399.74
- Valine Visit 7 ([3]; 125 mg, mean): 223.73
- Isoleucine Change from Baseline [3, 8]: −2.92
- Leucine Change from Baseline [3, 8]: −0.60
- TotalBCAA Change from Baseline [3, 8]: −9.61
- Isoleucine Baseline ([3]; 125 mg, mean): 62.55
- Leucine Baseline ([3]; 125 mg, mean): 115.62
- TotalBCAA Baseline ([3]; 125 mg, mean): 408.60
- Valine Baseline ([3]; 125 mg, mean): 230.43
- Peripheral Edema Present at 6 months ([3]; 250 mg (n = 85)): 11.10%
- Peripheral Edema Present at Baseline ([3]; 250 mg group (n = 85)): 9.40%
- Valine Visit 7 ([3]; 250 mg, N = 101, mean): 212.52
- Isoleucine Change from Baseline [3, 9]: −10.10
- Valine Change from Baseline [3, 9]: −17.15
- Isoleucine Baseline ([3]; 250 mg, N = 101, mean): 66.92
- Leucine Baseline ([3]; 250 mg, N = 101, mean): 121.54
- Valine Baseline ([3]; 250 mg, N = 101, mean): 232.15
- edema ([3]; 1-year Phase 2b dose-ranging trial): without precipitation of edema
- glycemic control [3, 10]: improved glycemic control
- insulin resistance [3, 10]: reduced insulin resistance
- Mean HbA1c at Baseline ([3]; Type II diabetes subjects, 62.5 mg group): 7.09%
- HbA1c Placebo-corrected change from Baseline at 6 months ([3]; Type II diabetes subjects, 62.5 mg, p 0.022): ▾0.37
- Mean HbA1c at Baseline ([3]; Type II diabetes subjects, 125 mg group): 6.90%
- HbA1c Placebo-corrected change from Baseline at 6 months ([3]; Type II diabetes subjects, 125 mg, p 0.001): ▾0.55
- Mean HbA1c at Baseline ([3]; Type II diabetes subjects, 250 mg group): 6.97%
- HbA1c Placebo-corrected change from Baseline at 6 months ([3]; Type II diabetes subjects, 250 mg, p 0.006): ▾0.45
- HbA1c ([3]; Type II diabetes subjects, all doses): statistically significant improvement
- HOMA-IR [3, 11]: Statistically significant reductions
- HbA1c [3, 11]: Statistically significant reductions
- HOMA-IR [3, 12]: statistically significant improvements
- HbA1c [3, 12]: statistically significant improvements
- fasting glucose [3, 12]: statistically significant improvements
- insulin levels [3, 12]: statistically significant improvements
- Adiponectin ([3]; all treatment cohorts): increased significantly in all treatment cohorts in a dose dependent manner
- additional biomarkers of fibrosis such as hematocrit ([3]; interim analysis): trends for improvement
- alkaline phosphatase ([3]; interim analysis, six months): Improvements
- bilirubin ([3]; interim analysis, six months): Improvements
- gamma GT ([3]; interim analysis, six months): Improvements
- lipids ([3]; overall, interim analysis): neutral effect
- liver enzymes, including ALT and AST ([3]; six months compared to baseline, interim analysis): statistically significant reductions
- C-Reactive Protein levels ([3]; two lowest doses): decrease
- expression of ABCA3 protein (abca3) in the lungs ([4]; sacrificed day 14, vs vehicle): increased
- expression of surfactant protein-B (sftbp) in the lungs ([4]; sacrificed day 14, vs vehicle): increased
- MCP-1 (CCL2) production in the lungs [4, 13]: decreased
- inflammatory monocyte numbers in the lungs [4, 13]: reduced
- disrupted area in lung (histology) ([4]; sacrificed day 14, vs vehicle (FIG. 13C)): significantly reduced
- total protein levels in bronchoalveolar lavage (lung barrier leakage) ([4]; sacrificed day 14, vs vehicle (FIG. 13E)): decreased
- Leucine Change from Baseline [5, 7]: −6.74
- Valine Change from Baseline [5, 8]: −6.08
- Isoleucine Visit 7 ([5]; 250 mg, N = 101, mean, 12-month endpoint): 56.15
- Leucine Change from Baseline [5, 9]: −10.55
- TotalBCAA Change from Baseline [5, 9]: −37.80
- Branched Chain Amino Acids (BCAA) ([5]; baseline to 12-month endpoint (Visit 7)): reduced
- metabolism (carbonyl reductase): metabolized to its hydroxy metabolite (MSDC-0597) by a carbonyl reductase
- glucose tolerance (GTT) ([6]; LS-MPC2−/− mice): no improvement in glucose tolerance
- plasma ALT and liver injury gene expression in LS-MPC2−/− mice ([6]; LS-MPC2−/− mice, acute treatment): refractory to the beneficial effects
- glucose tolerance (GTT) ([6]; WT mice): improved glucose tolerance
- plasma ALT concentrations ([6]; WT mice, single dose (FIG. 8A)): decreased plasma ALT concentrations
- gene expression for hepatic stellate cell activation and fibrotic scar formation ([6]; WT mice, single dose (FIG. 8B)): decreased gene expression
- plasma insulin values ([6]; both WT and LS-MPC2−/− mice, single dose 30 mg/kg): decreased
